The test system of assay [1] is FMRP. The assay can be described thus: Western blot of FMRP relative to GAPDH in FXS2 LCL (GM06897). It counts as cell-based, human. The following applies: 5-AzadC 1 μM, 7 days. Here is the method: Antisense oligonucleotides (ASOs) were dissolved in ultrapure distilled water to a final concentration of 10 μM. Before use, the ASOs were heated to 55° C. for 15 minutes and cooled at room temperature. ASOs were added, individually or in combinations, to LCL cell lines at a final concentration of 80 nM or 160 nM using Lipofectamine RNAIMAX® Transfection Reagent (Thermo Fisher Scientific, 13778030) and incubated at 37° C. with 5% CO2 for 16 hours in reduced serum medium. RPMI 1640 medium (Sigma-Aldrich), supplemented with 15% fetal bovine serum (FBS) was added for a total of 72 hours. […]
Cells were homogenized at 4° C. in RIPA buffer, with incubation on ice for 10 minutes and dissociation by pipetting. The extract was centrifuged at 13,200 rpm for 10 minutes at 4° C., and the supernatant collected. Protein concentration was determined using BCA reagent. Proteins (10 μg) were diluted in SDS-bromophenol blue reducing buffer with 40 mM DTT and analyzed using western blotting with the following antibodies: FMRP (Millipore, mAb2160, 1: 1,000), FMRP (Abcam, ab17722, 1:1,000) and GAPDH (14C10, Cell Signaling Technology, mAb 2118, 1:2,000), diluted in 1×TBST with 5% non-fat milk. […]
Cells were homogenized at 4° C. in radioimmunoprecipitation assay (RIPA) lysis buffer with incubation on ice for 10 minutes and dissociation by pipetting. […] Protein concentration was determined by BCA reagent. […]
(In western blotting, separated proteins are transferred to a membrane and probed.)

Assay [2] concerns FMR1-217 RNA. The assay can be described thus: RT-qPCR of FMR1-217 and FMR1 in FXS lung fibroblasts (GM07072) treated with 5-AzadC and ASOs 713/714. It counts as cell-based, human. The following applies: fully methylated FMR1, 5-AzadC in the absence of ASOs. (In general: Quantitative PCR measures a nucleic acid by following its amplification.)
Method: FIG. 15D Lung fibroblasts derived from a FXS individual (GM07072, Coriell Institute) were cultured with 5-AzadC for 8 days and then treated with ASOs 713/714 (100 nM each) for 72 hours prior to RNA and protein extraction. RT-qPCR analysis of FMR1-217, FMR1, and GAPDH RNAs in lung fibroblasts treated with DMSO, ASOs 713/714, 5-AzadC, or the ASOs 713/714 plus 5-AzadC. The amounts of FMR1-217 and FMR1 were made relative to GAPDH. (*p<0.05, **p<0.01, ***p<0.001, one way ANOVA with multiple comparisons test).
FIG. 21D Lung fibroblasts derived from an FXS individual (GM07072, Coriell Institute) were cultured with 5-AzadC for 8 days and then treated with ASOs 713/714 (100 nM each) for 72 hours prior to RNA and protein extraction. RT-qPCR analysis of FMR1-217, FMR1, and GAPDH RNAs in lung fibroblasts treated with DMSO, ASOs 713/714, 5-AzadC, or the ASOs 713/714 plus 5-AzadC. The amounts of FMR1-217 and FMR1 were made relative to GAPDH (*P<0.05, **P<0.01, ***P<0.001, one-way ANOVA with multiple comparisons test).
The test system of another assay is FMR1 RNA. The following applies: FXS LCLs; 36 days of 5-AzadC; previous study; cited from earlier work.
The test system of assay [3] is FMR1 transcripts (total, FMR1-205, FMR1-217). The following applies: FXS iPSC-derived NSCs, reanalyzed from RNA-seq data of Vershkov et al., cited from earlier work.
Assay [4] relates to FMR1-217 RNA. The assay can be described thus: RT-qPCR of FMR1-217 and full-length FMR1 in partially methylated FXS2 LCL (GM06897). The following applies: 5-AzadC 1 μM, 7 days, vs DMSO. It counts as cell-based, human. Here is the method:
(§1) One microgram (μg) of total RNA was primed with oligo(dT)20 to generate cDNA with a QuantiTect cDNA synthesis kit (Qiagen, #205311) using random hexamers (Table 3). qPCR was performed using the iTaq™ Universal SYBR® Green Supermix (BIO-RAD #1725122) on a QuantStudio 3 qPCR machine in duplicate.
(§2) Antisense oligonucleotides (ASOs) were dissolved in ultrapure distilled water to a final concentration of 10 μM. Before use, the ASOs were heated to 55° C. for 15 minutes and cooled at room temperature. ASOs were added, individually or in combinations, to LCL cell lines at a final concentration of 80 nM or 160 nM using Lipofectamine RNAIMAX® Transfection Reagent (Thermo Fisher Scientific, 13778030) and incubated at 37° C. with 5% CO2 for 16 hours in reduced serum medium. RPMI 1640 medium (Sigma-Aldrich), supplemented with 15% fetal bovine serum (FBS) was added for a total of 72 hours. The cells were collected after 72 hours of ASO treatment for RNA and protein extraction.
For each cell culture, 30×10^5 cells/mL were added to a final volume of 20 mL medium (RPMI 1640 medium (Sigma-Aldrich) supplemented with 15% fetal bovine serum (FBS) and 2.5% L-glutamine at 37° C. with 5% CO2) per T25 flask. 5-Aza-2′-deoxycytidine (5-AzadC) (Sigma-Aldrich, A3656) was added to the cell cultures (final concentration 1 μM) for 7 consecutive days. A 2 mM stock of 5-AzadC was made in DMSO. […]

Assay [5] deals with FMRP. The assay can be described thus: Western blot of FMRP relative to GAPDH in FXS1 LCL (GM07365). Type of assay: cell-based, human. The following applies: 5-AzadC 1 μM alone, 7 days. The protocol:
For each cell culture, 30×10^5 cells/mL were added in a final volume of 20 mL medium (RPMI 1640 medium (Sigma-Aldrich), supplemented with 15% FBS and 2.5% L-glutamine at 37° C. with 5% CO2) per T25 flask. 5-Aza-2′-deoxycytidine (5-AzaC) (Sigma-Aldrich, A3656) was added to the cell cultures (final concentration 1 μM) for 7 consecutive days. A 2 mM stock of 5-AzaC was made in DMSO. For each cell line, two independent treatments were performed (n=2). For the no treatment controls for each cell line, DMSO was added to the flasks. […]
Cells were homogenized at 4° C. in RIPA buffer with incubation on ice for 10 minutes and dissociation by pipetting. […] Protein concentration was determined by BCA reagent. Proteins (10 μg) were diluted in SDS-bromophenol blue reducing buffer with 40 mM DTT and analyzed using western blotting on a 10% SDS-PAGE gel with the following antibodies: FMRP (Abcam, 1:2000) and GAPDH (Cell signaling, 1:2000) diluted in 1×TBST with 5% non-fat milk. […]
Cells were homogenized at 4° C. in RIPA buffer, with incubation on ice for 10 minutes and dissociation by pipetting. […] Protein concentration was determined using BCA reagent. […]
Cells were homogenized at 4° C. in radioimmunoprecipitation assay (RIPA) lysis buffer with incubation on ice for 10 minutes and dissociation by pipetting. […] Protein concentration was determined by BCA reagent.

Assay [6] deals with FMRP. The assay can be described thus: Western blot of FMRP in FXS dermal fibroblasts (GM05131B). Type of assay: cell-based, human. The following applies: 5-AzadC alone. The protocol: Cells were homogenized at 4° C. in RIPA buffer, with incubation on ice for 10 minutes and dissociation by pipetting. The extract was centrifuged at 13,200 rpm for 10 minutes at 4° C., and the supernatant collected. Protein concentration was determined using BCA reagent. Proteins (10 μg) were diluted in SDS-bromophenol blue reducing buffer with 40 mM DTT and analyzed using western blotting with the following antibodies: FMRP (Millipore, mAb2160, 1: 1,000), FMRP (Abcam, ab17722, 1:1,000) and GAPDH (14C10, Cell Signaling Technology, mAb 2118, 1:2,000), diluted in 1×TBST with 5% non-fat milk. Membranes were washed three times for 10 minutes with 1×TBST and incubated with anti-rabbit or anti-mouse secondary antibodies (Jackson, 1:10,000) at room temperature for 1 hour. Membranes were washed three times for 10 minutes with 1×TBST, developed with ECL-Plus (Piece), and scanned with GE Amersham Imager.
Cells were homogenized at 4° C. in radioimmunoprecipitation assay (RIPA) lysis buffer with incubation on ice for 10 minutes and dissociation by pipetting. The extract was centrifuged at 13,200 rpm for 10 minutes at 4° C., and the supernatant was collected. Protein concentration was determined by BCA reagent.

The subject of assay [7] is FMR1-217 RNA. The assay can be described thus: RT-qPCR of FMR1-217 and full-length FMR1 in fully methylated FXS1 LCL (GM07365) treated with 5-AzadC and/or ASOs. Type of assay: cell-based, human. The following applies: 5-AzadC (5-AzaC) 1 μM alone, 7 days, vs DMSO. Here is the method:
For each cell culture, 30×10^5 cells/mL were added in a final volume of 20 mL medium (RPMI 1640 medium (Sigma-Aldrich), supplemented with 15% FBS and 2.5% L-glutamine at 37° C. with 5% CO2) per T25 flask. 5-Aza-2′-deoxycytidine (5-AzaC) (Sigma-Aldrich, A3656) was added to the cell cultures (final concentration 1 μM) for 7 consecutive days. A 2 mM stock of 5-AzaC was made in DMSO. For each cell line, two independent treatments were performed (n=2). For the no treatment controls for each cell line, DMSO was added to the flasks. For samples with both 5-AzaC and ASO treatment, 80 nM ASOs or vehicle were added on Day 1 and either 5-AzaC or DMSO was added each day from Day 2 up to Day 9 at a final concentration of 1 μM. On Day 9 the cells were collected in 1×Phosphate buffered saline to proceed with RNA extraction or Western blotting.
as §1, §2
For each cell culture, 30×10^5 cells/mL were added to a final volume of 20 mL medium (RPMI 1640 medium (Sigma-Aldrich) supplemented with 15% fetal bovine serum (FBS) and 2.5% L-glutamine at 37° C. with 5% CO2) per T25 flask. 5-Aza-2′-deoxycytidine (5-AzadC) (Sigma-Aldrich, A3656) was added to the cell cultures (final concentration 1 μM) for 7 consecutive days. A 2 mM stock of 5-AzadC was made in DMSO. For each cell line, two independent treatments were performed (n=2). For the no treatment controls for each cell line, DMSO was added to the flasks. For samples with both 5-AzadC and ASO treatment, 80 nM or 160 nM ASOs or vehicle were added on Day 1 and either 5-AzadC or DMSO was added each day from Day 2 up to Day 9 at a final concentration of 1 μM. On Day 9 the cells were collected in 1× phosphate buffered saline to proceed with RNA extraction or Western blotting. […]

Several values for one entry are separate records, joined by “and”; a condition that tells them apart may be missing. Equal entries are not always repeated. Entries after “also recorded” stand apart in the source; their conditions may differ. Where two headings read alike, the source gives them in different places.

`Nc1ncn([C@H]2C[C@H](O)[C@@H](CO)O2)c(=O)n1` [5-AzadC, 5-Aza-2′-deoxycytidine]: the “FMRP level (western blot, relative to GAPDH)” value with FMRP [1] was “In neither cell line did 5-AzadC treatment induce a significant increase in FMRP”. Also, in the assay with FMR1-217 RNA [2], the “FMR1-217 RNA level” value was “increased” and the “FMR1 RNA level” value is given as “increased”. Moreover, in the assay with FMR1 RNA, the “FMRP level compared to that in TD cells” value is “even lower level” and the “restoration of FMR1 RNA” value is given as “up to 40%”. Further, in assay [3] (biologic duplicate), the “FMR1 (total) reads” value is 9.9 TPM and 6.1 TPM; the FMR1-217 reads was 6.9 TPM and 3.9 TPM. In addition, in assay [3], the “FMR1-217 RNA-seq reads (in words)” value is listed as “clearly evident; also recorded: strong FMR1-217 expression; also recorded: reads corresponding to FMR1-217; also recorded: detected only in the 5-AzadC-treated samples”; the “total FMR1 and FMR1-205 expression (in words)” value is “strong total FMR1 and FMR1-205 expression; also recorded: expressed”. Further, in assay [3] (listed as 5-azadC), the “FMR1-217 RNA-seq reads (in words)” value is “detected only in the 5-azadC-treated samples”. For the same molecule, in the assay with FMR1-217 RNA [4], the “full-length FMR1 RNA level” value is “increase of only full-length FMR1 RNA”. The “FMRP level (western blot, relative to GAPDH)” value in the assay with FMRP [5] is on record as “little or no FMRP; also recorded: increased FMR1-217 RNA levels but not FMRP; also recorded: In neither cell line did 5-AzadC treatment induce a significant increase in FMRP; also recorded: did not affect FMRP levels; also recorded: unaffected; also recorded: little FMRP; also recorded: modest increase; also recorded: modestly affected”. For the same molecule, in the assay with FMRP [6], the “FMRP level (western blot)” value was “no effect”. Moreover, in the assay on FMR1-217 RNA [7], the “FMR1-217 (iso12) RNA level” value was “synthesis of both FMR1 and FMR1-217 RNAs; also recorded: increased FMR1-217 RNA levels; also recorded: significant increases; also recorded: expected increase; also recorded: resulted in the expression of FMR1-217 and full-length FMR1”; the “full-length FMR1 (iso1) RNA level” value was “synthesis of both FMR1 and FMR1-217 RNAs; also recorded: significant increases; also recorded: expected increase; also recorded: resulted in the expression of FMR1-217 and full-length FMR1”. Further, in the assay on FMR1-217 RNA [7] (listed as 5-AzaC), the “FMR1-217 (iso12) RNA level” value is on record as “increase in FMR1 iso12” and the “full-length FMR1 (iso1) RNA level” value is listed as “increase in FMR1 iso1”.

The values are drawn from patent US20240417729A1, “THERAPEUTIC TREATMENT FOR FRAGILE X-ASSOCIATED DISORDER” (University of Massachusetts, priority 2021, published 2024).
